The target of this assay is P. falciparum apicoplast DNA polymerase (Pf-apPOL) (Plasmodium falciparum, UniProt Q8ILY1). As to the kind of experiment: Fluorescence-based high-throughput DNA polymerase assay (molecular beacon), primary screen and dose-response.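 For % inhibition ApPOL 90': test concentration in µM.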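 For % inhibition apPOL 180': test concentration in µM.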 It counts as biochemical. Summed up: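 Single-point screening used 10 µM compound with 20 nM polymerase, 20 nM hairpin substrate and 6 µM dNTPs for 90 min at 25 °C. Confirmatory titrations (2.5–80 µM) followed fluorescence at three times, and IC50 was derived from a fit including a cooperativity term n.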
P. falciparum apicoplast DNA polymerase (Pf-apPOL), sequence (Q8ILY1 entry or part of it): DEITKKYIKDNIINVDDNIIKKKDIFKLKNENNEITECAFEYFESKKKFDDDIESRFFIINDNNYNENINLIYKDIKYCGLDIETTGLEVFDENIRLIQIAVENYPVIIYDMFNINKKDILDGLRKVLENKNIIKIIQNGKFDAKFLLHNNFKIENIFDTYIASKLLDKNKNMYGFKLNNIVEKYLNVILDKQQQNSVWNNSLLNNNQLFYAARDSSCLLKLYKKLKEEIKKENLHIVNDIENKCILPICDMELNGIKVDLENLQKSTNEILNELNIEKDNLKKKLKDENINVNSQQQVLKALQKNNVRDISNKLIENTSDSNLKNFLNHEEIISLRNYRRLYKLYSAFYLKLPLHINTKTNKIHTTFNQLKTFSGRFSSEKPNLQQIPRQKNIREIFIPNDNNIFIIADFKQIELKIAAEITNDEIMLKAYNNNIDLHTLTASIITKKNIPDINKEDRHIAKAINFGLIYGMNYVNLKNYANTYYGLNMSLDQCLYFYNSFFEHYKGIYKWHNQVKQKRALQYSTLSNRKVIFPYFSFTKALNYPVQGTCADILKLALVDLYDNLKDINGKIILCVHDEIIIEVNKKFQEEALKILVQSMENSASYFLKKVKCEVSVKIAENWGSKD

Setting [1] is: primary screen value of the 186 hits; unit not given; 90 min, 10 µM.
Setting [2] is: supplemental file 2, sheet IC50 nontoxic compounds; Pf-apPOL.

The term IC50 denotes the concentration at which inhibition is half-maximal.

Structures are written as SMILES.

In the case of `O=C(Cc1cccs1)N1CCN(c2nc(CN3CCOCC3)cs2)CC1` [Molecule 35, O=C(N1CCN(CC1)c1scc(n1)CN1CCOCC1)Cc1cccs1], the “% inhibition Apo pol 10'” value runs as follows: (DRC-1; concentration 2.5; 10') -2.34%; (DRC-1; concentration 5; 10') 14%; (DRC-1; concentration 10; 10') 46%; (DRC-1; concentration 20; 10') 76%; (DRC-1; concentration 40; 10') 83%; (DRC-1; concentration 80 (unit not given); 10') 83%. The “% inhibition Apo pol 10'” value by setting is: (first dose-response set; 10'; concentration 10) 46%; (first dose-response set; 10'; concentration 40) 83%; (first dose-response set; 10'; concentration 80 (unit not given)) 83%. Besides, the “% inhibition Apol 90'” value by setting is: (DRC-1; concentration 2.5; 90') -6%; (DRC-1; concentration 5; 90') 6.43%; (DRC-1; concentration 10; 90') 34%; (DRC-1; concentration 20; 90') 68%; (DRC-1; concentration 40; 90') 83%; (DRC-1; concentration 80; 90') 86%. Moreover, under “first dose-response set; 90'; concentration 40”, the “% inhibition Apol 90'” value worked out at 83%. Further, the “% inhibition apPOL 180'” value (DRC-1; concentration 2.5; 180') is listed as -10%; the “% inhibition apPOL 180'” value (DRC-1; concentration 5; 180') is listed as -2.23%; the “% inhibition apPOL 180'” value (DRC-1; concentration 10; 180') stood at 19%; the “% inhibition apPOL 180'” value (DRC-1; concentration 20; 180') was determined as 53%; the “% inhibition apPOL 180'” value (DRC-1; concentration 40; 180') was 81%; the “% inhibition apPOL 180'” value (DRC-1; concentration 80; 180') was 88%. Also, the “% inhibition apPOL 180'” value (DRC-2; 180'; concentration 40) is listed as 69%; the “% inhibition apPOL 180'” value (DRC-2; concentration 2.5; 180') worked out at 1.49%; the “% inhibition apPOL 180'” value (DRC-2; concentration 5; 180') was 13%; the “% inhibition apPOL 180'” value (DRC-2; concentration 10; 180') was 31%; the “% inhibition apPOL 180'” value (DRC-2; concentration 20; 180') is given as 56%; the “% inhibition apPOL 180'” value (DRC-2; concentration 40; 180') came out at 69%. Also, the “% inhibition apPOL 180'” value reads like this: (DRC-2; concentration 80; 180') 70%; (first dose-response set; 180'; concentration 10) 19%. Also, the “% inhibition Apo pol 5'” value is, setting by setting: (DRC-2; 5'; concentration 2.5) 8%; (DRC-2; 5'; concentration 5) 19%; (DRC-2; 5'; concentration 10) 35%; (DRC-2; 5'; concentration 40) 46%; (DRC-2; 5'; concentration 80) 35%; (DRC-2; concentration 2.5; 5') 8%. Also, the “% inhibition Apo pol 5'” value runs as follows: (DRC-2; concentration 5; 5') 19%; (DRC-2; concentration 10; 5') 35%; (DRC-2; concentration 20; 5') 45%; (DRC-2; concentration 40; 5') 46%; (DRC-2; concentration 80; 5') 35%. The “% inhibition ApPOL 90'” value by setting is: (DRC-2; 90'; concentration 2.5) 8%; (DRC-2; 90'; concentration 40) 69%; (DRC-2; concentration 2.5; 90') 8%; (DRC-2; concentration 5; 90') 20%; (DRC-2; concentration 10; 90') 41%; (DRC-2; concentration 20; 90') 62%. In addition, the “% inhibition ApPOL 90'” value reads like this: (DRC-2; concentration 40; 90') 69%; (DRC-2; concentration 80; 90') 65%. Moreover, the “% inhibition Apol 40'” value (DRC-2; concentration 2.5; 40') is reported as 9%; the “% inhibition Apol 40'” value (DRC-2; concentration 5; 40') was found to be 22%; the “% inhibition Apol 40'” value (DRC-2; concentration 10; 40') was found to be 43%; the “% inhibition Apol 40'” value (DRC-2; concentration 20; 40') came out at 61%; the “% inhibition Apol 40'” value (DRC-2; concentration 40; 40') is 64%; the “% inhibition Apol 40'” value (DRC-2; concentration 80; 40') was determined as 59%. In addition, the “DNA Pol” value is listed as 37 under setting [1] and 37 (primary screen value; head prints only 'DNA Pol'; 90 min, 10 µM).

In the case of `O=C(Cc1cccs1)N1CCN(c2nc(CN3CCOCC3)cs2)CC1` [Molecule 35], the IC50 under setting [2] turned out to be 11.2 µM.

As for `O=C(Cn1ccc2c(=O)[nH]ccc21)Nc1ccc(Cl)cc1` [Molecule 36, O=C(Cn1ccc2c1cc[nH]c2=O)Nc1ccc(cc1)Cl], the “% inhibition Apo pol 10'” value reads like this: (DRC-1; 10'; concentration 2.5) 6.801%; (DRC-1; 10'; concentration 5) 22.3776%; (DRC-1; 10'; concentration 10) 24.792%; (DRC-1; 10'; concentration 20) 79.2996%; (DRC-1; 10'; concentration 40) 82.0585%; (DRC-1; 10'; concentration 80) 79.648%. For the same molecule, the “% inhibition Apol 90'” value was -0.4643% (DRC-1; 90'; concentration 2.5); 11.3565% (DRC-1; 90'; concentration 5); 14.0157% (DRC-1; 90'; concentration 10); 73.6159% (DRC-1; 90'; concentration 20); 79.7069% (DRC-1; 90'; concentration 40); 82.9478% (DRC-1; 90'; concentration 80). Moreover, the “% inhibition apPOL 180'” value is listed as -6.005% (DRC-1; 180'; concentration 2.5); 0.9781% (DRC-1; 180'; concentration 5); 3.9308% (DRC-1; 180'; concentration 10); 61.1275% (DRC-1; 180'; concentration 20); 73.0225% (DRC-1; 180'; concentration 40); 82.2877% (DRC-1; 180'; concentration 80). Further, the “% inhibition apPOL 180'” value is, setting by setting: (DRC-2, 180', concentration 20 (unit not given)) 63%; (DRC-2, 180', concentration 80 (unit not given)) 67%; (DRC-2; 180'; concentration 2.5) -7%; (DRC-2; 180'; concentration 5) 11%; (DRC-2; 180'; concentration 10) 48%; (DRC-2; 180'; concentration 20) 63%. The “% inhibition apPOL 180'” value reads like this: (DRC-2; 180'; concentration 40) 69%; (DRC-2; 180'; concentration 80) 67%. Moreover, the “% inhibition Apo pol 5'” value (DRC-2, 5', concentration 10 (unit not given)) amounted to 44%; the “% inhibition Apo pol 5'” value (DRC-2, 5', concentration 20 (unit not given)) was 44%; the “% inhibition Apo pol 5'” value (DRC-2; 5'; concentration 2.5) is reported as 0%; the “% inhibition Apo pol 5'” value (DRC-2; 5'; concentration 5) is reported as 20%; the “% inhibition Apo pol 5'” value (DRC-2; 5'; concentration 5 (unit not given)) is recorded as 20%; the “% inhibition Apo pol 5'” value (DRC-2; 5'; concentration 10) is 44%. The “% inhibition Apo pol 5'” value (DRC-2; 5'; concentration 20) is recorded as 44%, the “% inhibition Apo pol 5'” value (DRC-2; 5'; concentration 40) was 41% and the “% inhibition Apo pol 5'” value (DRC-2; 5'; concentration 80) amounted to 30%. In addition, the “% inhibition Apol 40'” value runs as follows: (DRC-2, 40', concentration 10 (unit not given)) 57%; (DRC-2, 40', concentration 20 (unit not given)) 63%; (DRC-2, 40', concentration 40 (unit not given)) 63%; (DRC-2; 40'; concentration 2.5) -0.111%; (DRC-2; 40'; concentration 5) 24%; (DRC-2; 40'; concentration 10) 57%. In addition, the “% inhibition Apol 40'” value (DRC-2; 40'; concentration 20) was 63%, the “% inhibition Apol 40'” value (DRC-2; 40'; concentration 40) was 63% and the “% inhibition Apol 40'” value (DRC-2; 40'; concentration 80) came out at 56%. The “% inhibition ApPOL 90'” value is, setting by setting: (DRC-2, 90', concentration 5 (unit not given)) 20%; (DRC-2, 90', concentration 10 (unit not given)) 57%; (DRC-2, 90', concentration 40 (unit not given)) 67%; (DRC-2; 90'; concentration 2.5) -2%; (DRC-2; 90'; concentration 5) 20%; (DRC-2; 90'; concentration 10) 57%. In addition, the “% inhibition ApPOL 90'” value runs as follows: (DRC-2; 90'; concentration 20) 66%; (DRC-2; 90'; concentration 40) 67%; (DRC-2; 90'; concentration 80) 61%. The “DNA Pol” value reads like this: under setting [1], 46; (primary screen value, head "DNA Pol", unit not given; 90 min, 10 µM) 46.

In the case of `O=C(Cn1ccc2c(=O)[nH]ccc21)Nc1ccc(Cl)cc1` [Molecule 36], the IC50 under setting [2] was 12.8 µM.

Regarding `CCCCC(=O)N1CCc2c(nc3cc(-c4ccccc4Cl)[nH]n3c2=O)C1` [Molecule 37], under setting [2], the IC50 was 10.4 µM.

These data come from article PMC9090415, “Discovery of small molecule inhibitors of Plasmodium falciparum apicoplast DNA polymerase” (Journal of Enzyme Inhibition and Medicinal Chemistry, 2022).
